Assay results as given in patent publication US20240390328A1, “PHARMACEUTICAL COMPOSITION CONTAINING AS ACTIVE INGREDIENT COMPOUND CONJUGATED TO G4 STRUCTURES OF CORONAVIRUSES FOR PREVENTION OR TREATMENT OF CORONAVIRUS INFECTIOUS DISEASES” (priority 2020, published 2024).

Key:
Format in all cases: binding
[1] = tested on: 25 G4s predicted for SARS-COV-2; experiment: CD thermal melting analysis, comparison of ΔTm over all G4s; conditions: for effect on stability of SARS-COV-2 G4 (ΔTm), in words: 15 μM RNA G4, 30 μM compound, FIGS. 6A and 6B; for number of G4s Destabilized: of the 25 SARS-COV-2 G4s
[2] = tested on: SARS-COV-2 RNA G4, position 353 (NsP1); experiment: CD thermal melting analysis, G4 No. 1; conditions: G4 No. 1, position 353, NsP1; 15 μM RNA G4, 30 μM compound
Procedure: (§1) For melting, the samples were heated at 25 to 95° C. at 2° C./min with a data pitch of 0.5° C. CD melting analyses were performed with and without G4-binding compounds. The ratio of RNA: G4-binding compound was set to a molar ratio of 1:2. 15 μM RNA G4 was treated with 30 μM G4-binding compound and incubated at room temperature in a buffer comprising 10 mM Tris-HCl (pH 7.5) and 100 mM KCl for 30 minutes. Ellipticity was measured at 265 nm. Thereafter, data were normalized and plotted in OriginPro 2017 to calculate Tm values.
(§2) In addition, 15 μM RNA G4 was treated with 30 μM compound and incubated, and a CD thermal melting curve of RNA G4 (15 μM) was obtained in the presence or absence of the G4-binding compound. Furthermore, the effect of G4-binding compounds on the stability of SARS-COV-2 G4 was confirmed by measuring the difference in melting temperature (ΔTm). The results are illustrated in FIGS. 6A and 6B.

[3] = tested on: SARS-COV-2 RNA G4, position 14947 (NsP12); experiment: CD thermal melting analysis, G4 No. 12; conditions: G4 No. 12, position 14947, NsP12; 15 μM RNA G4, 30 μM compound
Procedure: as §1, §2

[4] = tested on: SARS-COV-2 RNA G4, position 15208 (NsP12); experiment: CD thermal melting analysis, G4 No. 13; conditions: G4 No. 13, position 15208, NsP12; 15 μM RNA G4, 30 μM compound
Procedure: as §1, §2

[5] = tested on: SARS-COV-2 RNA G4, position 2714 (NsP2 + NsP3); experiment: CD thermal melting analysis, G4 No. 5; conditions: G4 No. 5, position 2714, NsP2 + NsP3; 15 μM RNA G4, 30 μM compound
Procedure: as §1, §2

[6] = tested on: SARS-COV-2 RNA G4, position 4261 (NsP3); experiment: CD thermal melting analysis, G4 No. 8; conditions: G4 No. 8, position 4261, NsP3; 15 μM RNA G4, 30 μM compound
Procedure: as §1, §2

[7] = tested on: SARS-COV-2 RNA G4, position 644 (NsP1); experiment: CD thermal melting analysis, G4 No. 2; conditions: G4 No. 2, position 644, NsP1; 15 μM RNA G4, 30 μM compound
Procedure: as §1, §2

[8] = tested on: SARS-COV-2 RNA G4, position 22316 (Surface glycoprotein); experiment: CD thermal melting analysis, G4 No. 16; conditions: G4 No. 16, position 22316, Surface glycoprotein; 15 μM RNA G4, 30 μM compound
Procedure: as §1, §2

[9] = tested on: SARS-COV-2 RNA G4, position 8687 (NsP4); experiment: CD thermal melting analysis, G4 No. 9; conditions: G4 No. 9, position 8687, NsP4; 15 μM RNA G4, 30 μM compound
Procedure: as §1, §2

[10] = tested on: SARS-COV-2 RNA G4, position 1463 (NsP2); experiment: CD thermal melting analysis, G4 No. 3; conditions: G4 No. 3, position 1463, NsP2; 15 μM RNA G4, 30 μM compound
Procedure: as §1, §2

[11] = tested on: SARS-COV-2 RNA G4, position 13385 (NsP10); experiment: CD thermal melting analysis, G4 No. 11; conditions: G4 No. 11, position 13385, NsP10; 15 μM RNA G4, 30 μM compound
Procedure: as §1, §2

[12] = tested on: SARS-COV-2 RNA G4, position 18296 (NsP12); experiment: CD thermal melting analysis, G4 No. 15; conditions: G4 No. 15, position 18296, NsP12; 15 μM RNA G4, 30 μM compound
Procedure: as §1, §2

[13] = tested on: SARS-COV-2 RNA G4, position 10261 (NsP5); experiment: CD thermal melting analysis, G4 No. 10; conditions: G4 No. 10, position 10261, NsP5; 15 μM RNA G4, 30 μM compound
Procedure: as §1, §2

[14] = tested on: SARS-COV-2 RNA G4, position 25951 (ORF3a protein); experiment: CD thermal melting analysis, G4 No. 20; conditions: G4 No. 20, position 25951, ORF3a protein; 15 μM RNA G4, 30 μM compound
Procedure: as §1, §2

[15] = tested on: SARS-COV-2 RNA G4, position 3467 (NsP3); experiment: CD thermal melting analysis, G4 No. 6; conditions: G4 No. 6, position 3467, NsP3; 15 μM RNA G4, 30 μM compound
Procedure: as §1, §2

[16] = tested on: SARS-COV-2 RNA G4, position 29234 (Nucleocapsid protein); experiment: CD thermal melting analysis, G4 No. 25; conditions: G4 No. 25, position 29234, Nucleocapsid protein; 15 μM RNA G4, 30 μM compound
Procedure: as §1, §2

[17] = tested on: SARS-COV-2 RNA G4, position 25197 (Surface glycoprotein); experiment: CD thermal melting analysis, G4 No. 19; conditions: G4 No. 19, position 25197, Surface glycoprotein; 15 μM RNA G4, 30 μM compound
Procedure: as §1, §2

[18] = tested on: SARS-COV-2 RNA G4, position 26746 (Membrane protein); experiment: CD thermal melting analysis, G4 No. 21; conditions: G4 No. 21, position 26746, Membrane protein; 15 μM RNA G4, 30 μM compound
Procedure: as §1, §2

[19] = tested on: SARS-COV-2 RNA G4, position 29123 (Nucleocapsid protein); experiment: CD thermal melting analysis, G4 No. 24; conditions: G4 No. 24, position 29123, Nucleocapsid protein; 15 μM RNA G4, 30 μM compound
Procedure: as §1, §2

Row | Compound | effect on stability of SARS-COV-2 G4 (ΔTm), in words [1] | number of G4s Destabilized [1] | Tm in ° C. with compound [2] | ΔTm [2] | Tm in ° C. with compound [3] | ΔTm [3] | Tm in ° C. with compound [4] | ΔTm [4] | Tm in ° C. with compound [5] | ΔTm [5] | Tm in ° C. with compound [6] | ΔTm [6] | Tm in ° C. with compound [7] | ΔTm [7] | Tm in ° C. with compound [8] | ΔTm [8] | Tm in ° C. with compound [9] | ΔTm [9] | Tm in ° C. with compound [10] | ΔTm [10] | further results
1 | CN1CCC[C@H]1CCNC(=O)c1cn2c3c(c(N4CCC(c5cnccn5)C4)c(F)cc3c1=O)Oc1cc3ccccc3cc1-2 (stereo partly drawn) [CX-3543, 15-fluoro-N-[2-[(2S)-1-methylpyrrolidin-2-yl]ethyl]-18-oxo-14-(3-pyrazin-2-ylpyrrolidin-1-yl)-12-oxa-1-azapentacyclo [11.7.1.0^2,11.0^4,9.0^17,21]henicosa-2,4,6,8, 10, 13 (21), 14,16,19-nonaene-19-carboxamide] | did not show any noticeable change | 6 | 72.64 °C | 1.05 °C | 58.11 °C | 0.9 °C | 63.87 °C | 6.7 °C | 57.69 °C | −13.45 °C | 63.89 °C | 13.58 °C | 53.32 °C | 5.59 °C | 49.56 °C | 1.28 °C | 49.83 °C | 2.97 °C | 66.55 °C | 11.03 °C | Tm in ° C. with compound [11]: 52.87 °C; ΔTm [11]: 7.27 °C; Tm in ° C. with compound [12]: 63.64 °C; ΔTm [12]: 4.81 °C; Tm in ° C. with compound [13]: 50.24 °C; ΔTm [13]: 2.35 °C; Tm in ° C. with compound [14]: 53.87 °C; ΔTm [14]: 5.13 °C; Tm in ° C. with compound [15]: 63.54 °C; ΔTm [15]: −2.01 °C; Tm in ° C. with compound [16]: 58.52 °C; ΔTm [16]: −3.65 °C; Tm in ° C. with compound [17]: 66.57 °C; ΔTm [17]: −4.62 °C; Tm in ° C. with compound [18]: 59.29 °C; ΔTm [18]: −3.37 °C; Tm in ° C. with compound [19]: 62.59 °C; ΔTm [19]: 8.19 °C
2 | NCCOc1cc(C(=O)Nc2cc(OCCN)c3ccccc3n2)nc(C(=O)Nc2cc(OCCN)c3ccccc3n2)c1 [PDS, 4-(2-aminoethoxy)-N2,N6-bis(4-(2-aminoethoxy)quinolin-2-yl)pyridine-2,6-dicarboxamide] | significantly stabilized most G4s | 2 | 87.66 °C | 16.07 °C | 82.16 °C | 24.95 °C | 60.16 °C | 2.99 °C | 86.49 °C | 15.35 °C | 79.18 °C | 28.87 °C | 70.59 °C | 22.86 °C | 55.62 °C | 7.34 °C | 84.44 °C | 37.58 °C | 60.04 °C | 4.52 °C | proportion of the G4s with ΔTm>20° C. ([1]; among the 25 G4s predicted for SARS-COV-2): 36%; Tm in ° C. with compound [11]: 63.07 °C; ΔTm [11]: 17.47 °C; Tm in ° C. with compound [12]: 82.4 °C; ΔTm [12]: 23.57 °C; Tm in ° C. with compound [13]: 60.66 °C; ΔTm [13]: 12.77 °C; Tm in ° C. with compound [14]: 92.26 °C; ΔTm [14]: 43.52 °C; Tm in ° C. with compound [15]: 88.65 °C; ΔTm [15]: 23.1 °C; Tm in ° C. with compound [16]: 80.2 °C; ΔTm [16]: 18.03 °C; Tm in ° C. with compound [17]: 68.63 °C; ΔTm [17]: −2.56 °C; Tm in ° C. with compound [18]: 68.77 °C; ΔTm [18]: 6.11 °C; Tm in ° C. with compound [19]: 73.83 °C; ΔTm [19]: 19.43 °C
